In patent US20230085307A1, “PYRIDAZINONE COMPOUND AND HERBICIDE” (NISSAN CHEMICAL CORPORATION, priority 2019, published 2023):

What was measured:
barnyard grass [1] = assay: Test Example 4: herbicidal effect by soil treatment (Table 19, symbol H); type: in vivo, barnyard grass (Echinochloa crus-galli); settings: amount of applied herbicide 320 g/ha
Outline: (§1)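 Three weeks of greenhouse growth at 25° C. to 30° C. followed a uniform surface spray of water-diluted emulsion at a predetermined herbicide amount. Seeds had been sown beforehand under about 1.5 cm of sterilized diluvial soil. Grading followed criteria set out in an earlier test.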

southern crabgrass [2] = assay: Test Example 5: herbicidal effect by foliage application, plastic box (Table 20, symbol F); type: in vivo, southern crabgrass (Digitaria ciliaris); settings: amount of applied herbicide 320 g/ha; foliage application after 14-day growth; evaluated three weeks after application
Outline: (§2)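 Plants sown in sterilized diluvial soil and grown 14 days in a greenhouse at 25° C to 30° C, then sprayed on the foliage with the compound's emulsion diluted in water to a predetermined herbicide amount. Injury to weeds and crops scored three weeks after application on a visual rating scale.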

velvetleaf [3] = assay: Test Example 5: herbicidal effect by foliage application, plastic box (Table 20, symbol M); type: in vivo, velvetleaf (Abutilon theophrasti); settings: amount of applied herbicide 320 g/ha; foliage application after 14-day growth; evaluated three weeks after application
Outline: as §2

redroot pigweed [4] = assay: Test Example 4: herbicidal effect by soil treatment (Table 19, symbol N); type: in vivo, redroot pigweed (Amaranthus retroflexus); settings: amount of applied herbicide 320 g/ha
Outline: as §1

Chinese sprangletop = assay: Test Example 3: herbicidal effect by foliage application, Wagner pot (Table 18, symbol D); type: in vivo, chinese sprangletop (Leptochloa chinensis); settings: 320 g/ha
Outline: (§3)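 Plants were sown in alluvial soil held under 0.1–0.5 cm standing water and grown 14 days in a greenhouse at 25–30 °C. An emulsifiable formulation, water-diluted to the set dose, was then sprayed onto the foliage, and effects were scored three weeks later using previously defined criteria.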

barnyard grass [5] = assay: Test Example 5: herbicidal effect by foliage application, plastic box (Table 20, symbol H); type: in vivo, barnyard grass (Echinochloa crus-galli); settings: amount of applied herbicide 320 g/ha; foliage application after 14-day growth; evaluated three weeks after application
Outline: as §2

late watergrass = assay: Test Example 1: herbicidal activity, application before weed generation under submerged conditions (Table 16, symbol A); type: in vivo, late watergrass (Echinochloa oryzicola); settings: amount of applied herbicide 320 g/ha
Outline: (§4)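 Emulsion formulation, water-diluted to set dose, was put onto the flooded surface (4 cm depth, alluvial soil) the same day weeds were sown and 2.5-leaf rice transplanted. After 3 weeks at 25-30 °C under glass, each species was rated 0 (≤5% kill) to 5 (≥90% kill).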

southern crabgrass [6] = assay: Test Example 4: herbicidal effect by soil treatment (Table 19, symbol F); type: in vivo, southern crabgrass (Digitaria ciliaris); settings: amount of applied herbicide 320 g/ha
Outline: as §1

Italian ryegrass [7] = assay: Test Example 4: herbicidal effect by soil treatment (Table 19, symbol K); type: in vivo, Italian ryegrass (Lolium multiflorum); settings: amount of applied herbicide 320 g/ha
Outline: as §1

blackgrass [8] = assay: Test Example 5: herbicidal effect by foliage application, plastic box (Table 20, symbol J); type: in vivo, blackgrass (Alopecurus myosuroides); settings: amount of applied herbicide 320 g/ha; foliage application after 14-day growth; evaluated three weeks after application
Outline: as §2

oval-leafed pondweed = assay: Test Example 1: herbicidal activity, application before weed generation under submerged conditions (Table 16, symbol C); type: in vivo, oval-leafed pondweed (Monochoria vaginalis); settings: amount of applied herbicide 320 g/ha
Outline: as §4

windgrass [9] = assay: Test Example 4: herbicidal effect by soil treatment (Table 19, symbol L); type: in vivo, windgrass (Apera spica-venti); settings: amount of applied herbicide 320 g/ha
Outline: as §1

chickweed [10] = assay: Test Example 4: herbicidal effect by soil treatment (Table 19, symbol P); type: in vivo, common chickweed (Stellaria media); settings: amount of applied herbicide 320 g/ha
Outline: as §1

lambsquarters [11] = assay: Test Example 5: herbicidal effect by foliage application, plastic box (Table 20, symbol O); type: in vivo, lambsquarters (Chenopodium album); settings: amount of applied herbicide 320 g/ha; foliage application after 14-day growth; evaluated three weeks after application
Outline: as §2

barnyard grass [12] = assay: Test Example 3: herbicidal effect by foliage application, Wagner pot (Table 18, symbol H); type: in vivo, barnyard grass (Echinochloa crus-galli); settings: 320 g/ha
Outline: as §3

persian speedwell [13] = assay: Test Example 4: herbicidal effect by soil treatment (Table 19, symbol R); type: in vivo, Persian speedwell (Veronica persica); settings: amount of applied herbicide 320 g/ha
Outline: as §1

velvetleaf [14] = assay: Test Example 4: herbicidal effect by soil treatment (Table 19, symbol M); type: in vivo, velvetleaf (Abutilon theophrasti); settings: amount of applied herbicide 320 g/ha
Outline: as §1

green foxtail [15] = assay: Test Example 5: herbicidal effect by foliage application, plastic box (Table 20, symbol G); type: in vivo, green foxtail (Setaria viridis); settings: amount of applied herbicide 320 g/ha; foliage application after 14-day growth; evaluated three weeks after application
Outline: as §2

Japanese bulrush = assay: Test Example 1: herbicidal activity, application before weed generation under submerged conditions (Table 16, symbol B); type: in vivo, Japanese bulrush (Schoenoplectus juncoides); settings: amount of applied herbicide 320 g/ha
Outline: as §4

lambsquarters [16] = assay: Test Example 4: herbicidal effect by soil treatment (Table 19, symbol O); type: in vivo, lambsquarters (Chenopodium album); settings: amount of applied herbicide 320 g/ha
Outline: as §1

persian speedwell [17] = assay: Test Example 5: herbicidal effect by foliage application, plastic box (Table 20, symbol R); type: in vivo, Persian speedwell (Veronica persica); settings: amount of applied herbicide 320 g/ha; foliage application after 14-day growth; evaluated three weeks after application
Outline: as §2

blackgrass [18] = assay: Test Example 4: herbicidal effect by soil treatment (Table 19, symbol J); type: in vivo, blackgrass (Alopecurus myosuroides); settings: amount of applied herbicide 320 g/ha
Outline: as §1

rice flat sedge = assay: Test Example 3: herbicidal effect by foliage application, Wagner pot (Table 18, symbol E); type: in vivo, rice flat sedge (Cyperus iria); settings: 320 g/ha
Outline: as §3

chickweed [19] = assay: Test Example 5: herbicidal effect by foliage application, plastic box (Table 20, symbol P); type: in vivo, common chickweed (Stellaria media); settings: amount of applied herbicide 320 g/ha; foliage application after 14-day growth; evaluated three weeks after application
Outline: as §2

windgrass [20] = assay: Test Example 5: herbicidal effect by foliage application, plastic box (Table 20, symbol L); type: in vivo, windgrass (Apera spica-venti); settings: amount of applied herbicide 320 g/ha; foliage application after 14-day growth; evaluated three weeks after application
Outline: as §2

redroot pigweed [21] = assay: Test Example 5: herbicidal effect by foliage application, plastic box (Table 20, symbol N); type: in vivo, redroot pigweed (Amaranthus retroflexus); settings: amount of applied herbicide 320 g/ha; foliage application after 14-day growth; evaluated three weeks after application
Outline: as §2

wild oat [22] = assay: Test Example 5: herbicidal effect by foliage application, plastic box (Table 20, symbol I); type: in vivo, wild oat (Avena fatua); settings: amount of applied herbicide 320 g/ha; foliage application after 14-day growth; evaluated three weeks after application
Outline: as §2

Italian ryegrass [23] = assay: Test Example 5: herbicidal effect by foliage application, plastic box (Table 20, symbol K); type: in vivo, Italian ryegrass (Lolium multiflorum); settings: amount of applied herbicide 320 g/ha; foliage application after 14-day growth; evaluated three weeks after application
Outline: as §2

green foxtail [24] = assay: Test Example 4: herbicidal effect by soil treatment (Table 19, symbol G); type: in vivo, green foxtail (Setaria viridis); settings: amount of applied herbicide 320 g/ha
Outline: as §1

wild oat [25] = assay: Test Example 4: herbicidal effect by soil treatment (Table 19, symbol I); type: in vivo, wild oat (Avena fatua); settings: amount of applied herbicide 320 g/ha
Outline: as §1

SMILES	Herbicidal effect by foliage application, F: southern crabgrass (southern crabgrass [2])	Herbicidal effect by foliage application, M: velvetleaf (velvetleaf [3])	herbicidal effect on Chinese sprangletop (D) (Chinese sprangletop)	Herbicidal effect by foliage application, H: barnyard grass (barnyard grass [5])	Herbicidal effect, A: late watergrass (late watergrass)	Herbicidal effect by foliage application, J: blackgrass (blackgrass [8])	Herbicidal effect, C: oval-leafed pondweed (oval-leafed pondweed)	Herbicidal effect by foliage application, O: lambsquarters (lambsquarters [11])	herbicidal effect on barnyard grass (H) (barnyard grass [12])	Herbicidal effect by foliage application, G: green foxtail (green foxtail [15])	Herbicidal effect, B: Japanese bulrush (Japanese bulrush)	Herbicidal effect by foliage application, R: persian speedwell (persian speedwell [17])	herbicidal effect on rice flat sedge (E) (rice flat sedge)	Herbicidal effect by foliage application, P: chickweed (chickweed [19])	Herbicidal effect by foliage application, L: windgrass (windgrass [20])	Herbicidal effect by foliage application, N: redroot pigweed (redroot pigweed [21])	Herbicidal effect by foliage application, I: wild oat (wild oat [22])	Herbicidal effect by foliage application, K: Italian ryegrass (Italian ryegrass [23])	other results
CCOc1cccc(-c2sc3c(C)cccc3c2-c2c(O)c(C)nn(C)c2=O)c1 [4-114]	4 (Herbicidal rate of 70% or more and less than 90%)	1 (Herbicidal rate of 5% or more and less than 20%)	3 (Herbicidal rate of 40% or more and less than 70%)	0 (Herbicidal rate of 5% or less (almost no effect))	3 (Herbicidal rate of 40% or more and less than 70%)	1 (Herbicidal rate of 5% or more and less than 20%)	0 (Herbicidal rate of 5% or less (almost no effect))	3 (Herbicidal rate of 40% or more and less than 70%)	4 (Herbicidal rate of 70% or more and less than 90%)	4 (Herbicidal rate of 70% or more and less than 90%)	0 (Herbicidal rate of 5% or less (almost no effect))	5 (Herbicidal rate of 90% or more (almost completely withered))	4 (Herbicidal rate of 70% or more and less than 90%)	5 (Herbicidal rate of 90% or more (almost completely withered))	1 (Herbicidal rate of 5% or more and less than 20%)	4 (Herbicidal rate of 70% or more and less than 90%)	0 (Herbicidal rate of 5% or less (almost no effect))	5 (Herbicidal rate of 90% or more (almost completely withered))	Herbicidal effect by soil treatment, H: barnyard grass (barnyard grass [1]): 1 (Herbicidal rate of 5% or more and less than 20%); Herbicidal effect by soil treatment, N: redroot pigweed (redroot pigweed [4]): 3 (Herbicidal rate of 40% or more and less than 70%); Herbicidal effect by soil treatment, F: southern crabgrass (southern crabgrass [6]): 4 (Herbicidal rate of 70% or more and less than 90%); Herbicidal effect by soil treatment, K: Italian ryegrass (Italian ryegrass [7]): 4 (Herbicidal rate of 70% or more and less than 90%); Herbicidal effect by soil treatment, L: windgrass (windgrass [9]): 0 (Herbicidal rate of 5% or less (almost no effect)); Herbicidal effect by soil treatment, P: chickweed (chickweed [10]): 3 (Herbicidal rate of 40% or more and less than 70%); Herbicidal effect by soil treatment, R: persian speedwell (persian speedwell [13]): 4 (Herbicidal rate of 70% or more and less than 90%); Herbicidal effect by soil treatment, M: velvetleaf (velvetleaf [14]): 0 (Herbicidal rate of 5% or less (almost no effect)); Herbicidal effect by soil treatment, O: lambsquarters (lambsquarters [16]): 4 (Herbicidal rate of 70% or more and less than 90%); Herbicidal effect by soil treatment, J: blackgrass (blackgrass [18]): 0 (Herbicidal rate of 5% or less (almost no effect)); Herbicidal effect by soil treatment, G: green foxtail (green foxtail [24]): 4 (Herbicidal rate of 70% or more and less than 90%); Herbicidal effect by soil treatment, I: wild oat (wild oat [25]): 0 (Herbicidal rate of 5% or less (almost no effect))
COCc1ccc(-c2sc3cc(F)c(F)cc3c2-c2c(O)c(C)nn(C)c2=O)cc1 [5-009]	2 (Herbicidal rate of 20% or more and less than 40%)	4 (Herbicidal rate of 70% or more and less than 90%)	3 (Herbicidal rate of 40% or more and less than 70%)	3 (Herbicidal rate of 40% or more and less than 70%)	2 (Herbicidal rate of 20% or more and less than 40%)	0 (Herbicidal rate of 5% or less (almost no effect))	0 (Herbicidal rate of 5% or less (almost no effect))	3 (Herbicidal rate of 40% or more and less than 70%)	4 (Herbicidal rate of 70% or more and less than 90%)	3 (Herbicidal rate of 40% or more and less than 70%)	0 (Herbicidal rate of 5% or less (almost no effect))	5 (Herbicidal rate of 90% or more (almost completely withered))	3 (Herbicidal rate of 40% or more and less than 70%)	5 (Herbicidal rate of 90% or more (almost completely withered))	0 (Herbicidal rate of 5% or less (almost no effect))	5 (Herbicidal rate of 90% or more (almost completely withered))	0 (Herbicidal rate of 5% or less (almost no effect))	3 (Herbicidal rate of 40% or more and less than 70%)	H: barnyard grass, herbicidal effect grade (barnyard grass [1]): 0 (Herbicidal rate of 5% or less (almost no effect)); N: redroot pigweed, herbicidal effect grade (redroot pigweed [4]): 4 (Herbicidal rate of 70% or more and less than 90%); F: southern crabgrass, herbicidal effect grade (southern crabgrass [6]): 0 (Herbicidal rate of 5% or less (almost no effect)); K: Italian ryegrass, herbicidal effect grade (Italian ryegrass [7]): 0 (Herbicidal rate of 5% or less (almost no effect)); L: windgrass, herbicidal effect grade (windgrass [9]): 0 (Herbicidal rate of 5% or less (almost no effect)); P: chickweed, herbicidal effect grade (chickweed [10]): 5 (Herbicidal rate of 90% or more (almost completely withered)); R: persian speedwell, herbicidal effect grade (persian speedwell [13]): 5 (Herbicidal rate of 90% or more (almost completely withered)); M: velvetleaf, herbicidal effect grade (velvetleaf [14]): 2 (Herbicidal rate of 20% or more and less than 40%); O: lambsquarters, herbicidal effect grade (lambsquarters [16]): 4 (Herbicidal rate of 70% or more and less than 90%); J: blackgrass, herbicidal effect grade (blackgrass [18]): 0 (Herbicidal rate of 5% or less (almost no effect)); G: green foxtail, herbicidal effect grade (green foxtail [24]): 2 (Herbicidal rate of 20% or more and less than 40%); I: wild oat, herbicidal effect grade (wild oat [25]): 0 (Herbicidal rate of 5% or less (almost no effect))
